In US20240075108A1, “HEPATOCELLULAR CARCINOMA TREATMENTS, PROPHYLACTIC THERAPIES, AND COMPOSITIONS FOR USE THEREWITH” (REPAIR BIOTECHNOLOGIES, INC., priority 2020, published 2024):

What was measured:
[1] = test system: CDP-Hep3B cells; test: MTT cell viability assay with sorafenib, CDP-Hep3B cells; format: cell-based; conditions: Homo sapiens, 12000 cells/well, 48 hours, n=3 independent experiments, read-out: calculated IC50 (cell viability)
Protocol: (§1) Human Hep3B hepatocellular carcinoma cells (from ATCC at www.atcc.org/products/all/HB-8064.aspx) were grown in Eagle's minimum essential media (EMEM) supplemented with 10% heat-inactivated FBS, PenStrep (100 units/mL//[…]) and 2mM L-Glutamine.
(§2) Hep3B cells were transduced with either empty lentivirus (MOI=5) or lentivirus harboring CDP (MOI=5). Transduced cells were selected by growth in puromycin (4 μg/mL) to establish stable cell lines of Mock-Hep3B (empty lentivirus) and CDP-Hep3B (lentivirus containing CDP). FIG. 1 is a representative western blot showing the expression of Flag-tagged CDP in CDP-Hep3B cells (“CDP”) and not in Mock-Hep3B cells (“Mock”). […]
(§3) The growth and viability of Mock- and CDP-Hep3B cells were assessed by cell proliferation assay, using the tetrazolium salt 3-[4,5-di-methylthiazol-2yl]-2,5-diphenyl-tetrazolium bromide (MTT) reagent (resources.rndsystems.com/pdfs/datasheets/4890-025-k.pdf). […] Detergent reagent was then added to each well to solubilize the formazan dye prior to measuring the absorbance of each sample in a microplate reader at 570 nm.
(§4) Growth rates of stable cell lines were also obtained in the presence of Sorafenib. […] Cell viability was assessed using the MTT assay after 48 hours as described above.

[2] = test system: Mock-Hep3B cells; test: MTT cell viability assay with sorafenib, Mock-Hep3B cells; format: cell-based; conditions: Homo sapiens, 12000 cells/well, 48 hours, n=3 independent experiments, read-out: calculated IC50 (cell viability)
Protocol: as §1, §2, §3, §4

IC50 [1]: 4.64 ± 0.16 µM
Compound: CNC(=O)c1cc(Oc2ccc(NC(=O)Nc3ccc(Cl)c(C(F)(F)F)c3)cc2)ccn1 [sorafenib, Sorafenib]
IC50 [2]: 4.76 ± 0.62 µM
